According to article PMC7369637, “Inhibition of Resistance-Refractory P. falciparum Kinase PKG Delivers Prophylactic, Blood Stage, and Transmission-Blocking Antiplasmodial Activity” (Cell Chemical Biology, 2020):

What was measured:
[1] = system: Dd2-B2 TKL3KO parasites with PP1 H237D/V249L or URP E20* mutations; assay: 72-h ABS assay, lines pulse-selected from ed. Dd2-B2 TKL3KO; type: cell-based; conditions: Plasmodium falciparum, parent ed. Dd2-B2 TKL3KO
Method: Synchronicity was achieved using three rounds of sorbitol treatment on early rings, spaced 48 h apart, followed by magnetic purification of segmented schizonts following the final sorbitol treatment. Parasites were highly synchronous to within a 3 h window of development. Assays were repeated on at least three independent occasions (each with technical duplicates) and statistical significance was assessed using Mann Whitney U tests.
The resulting MMV030084-resistant parasites were cloned by limiting dilution ([Baker et al., 2017]) to obtain genetically homogenous cultures for further phenotyping and whole-genome sequencing. A second round of […]. […] Drug susceptibility of resistant lines was assessed using a 72 h ABS assay as described above, and a Mann Whitney U test was applied to assess statistically significant differences.

[2] = system: mature (stage V) NF54 gametocytes; assay: Gametocyte susceptibility, saponin lysis-based MitoTracker high-content imaging assay; type: cell-based; conditions: Plasmodium falciparum, saponin lysis-based sexual stage assay, 72 h
Method: This was determined using two separate assays. The first involved MitoTracker staining and high-content imaging. Mature (stage V) gametocytes were generated from NF54 ABS cultures as described elsewhere ([Plouffe et al., 2016]). Briefly, asexual parasites were cultured at 5% hematocrit in O^+ human erythrocytes in serum-containing complete media (RPMI 1640 (Life Technologies), 0.05 mg/ml gentamicin (Life Technologies), 0.014 mg/ml hypoxanthine (Sigma), 38.4 mM HEPES (Sigma), 0.2% (w/v) sodium bicarbonate (Sigma), D-glucose 0.2% (w/v) (Sigma), 3.4 mM sodium hydroxide (Sigma), 4.3% (v/v) heat-inactivated human serum (O^+, Interstate Blood bank), and 0.2% (w/v) AlbuMAX® II (Life Technologies)). […] The second assay assessed gametocyte susceptibility using a luciferase-based assay with 3D7elo1-pfs16-CBG99 transgenic parasites ([Cevenini et al., 2014]). […] Cell viability was then evaluated by adding a non-lysing formulation of 0.5 mM D-Luciferin substrate and measuring luciferase activity for 0.5 s on a Varioskan™ Flash Multimode Reader (Thermo Scientific). The percent of viability was calculated as a function of drug concentration and IC50 values were derived by non-linear regression analysis and curve fitting (using GraphPad Prism 6.0).

in vitro = conditions: human

CC(C)(CN)c1nc(-c2ccc(Cl)c(O)c2)c(-c2ccncc2)[nH]1 [MMV030084]
IC50 ([1]; DD2, Line sel. Dd2-B2 TKL3KO + PP1H237D): 621 nM
IC50 ([1]; DD2, Line sel. Dd2-B2 TKL3KO + PP1V249L): 549 nM
IC50 ([1]; DD2, Line sel. Dd2-B2 TKL3KO + URPE20*): 819 nM
IC50 [2]: > 40000 nM
CC50 (in vitro): 41500 nM
